Tested on: PPIB mRNA
Test: siRNA delivery with CPP-10H peptides, PPIB mRNA by Taqman qRT-PCR
Type: cell-based
Conditions: GTM-3 cells; for suppression of PPIB mRNA expression: PPIB siRNA complexed with peptide 20:1 peptide:siRNA, 1 hour, 48 hour post-transfection, normalized to β-actin mRNA, relative to non-treated cells
Method: The ability of 10 histidine residues (10H) to enhance endosomal release of siRNAs delivered using certain cell penetrating peptides (CPPs) was examined. […] (SEQ ID NO: 12). Peptidyl-prolyl cis-trans isomerase B (PPIB) siRNA and Non-Targeting siRNA #2 (NTC2) (Thermo Fisher Scientific, Dharmacon Products, Lafayette, Colo.) were complexed with TAT-10H, CTP-10H, and YM3-10H peptides (Abgent, Inc., San Diego, Calif.) at a 20:1 peptide: siRNA molar ratio for 30 minutes at room temperature, and applied to GTM-3 cells (Pang, I. H., et al., 1994 Curr Eye Res. 13:51-63) at a final siRNA concentration of 100-800 nM for 1 hour. PPIB mRNA and β-actin mRNA levels were determined by Taqman qRT-PCR assay (Applied Biosystems, Austin, Tex.) at 48 hour post-transfection (FIG. 1). Data were normalized to β-actin mRNA, and expressed relative to PPIB mRNA level in non-treated cells.

Sequence: CHHHHHGGRRARRRRRRHHGHHC (CHHHHHGGRRARRRRRRHHHHHC) [CTP-10H]
- non-specific silencing of PPIB mRNA expression with NTC2 control (NTC2 non-targeting siRNA delivered with peptide, 800 nM siRNA, possibly due to a cytotoxic effect): significant silencing
- suppression of PPIB mRNA expression (100 nM siRNA): ~80%
- suppression of PPIB mRNA expression (200 nM siRNA): ≥ 90%
- suppression of PPIB mRNA expression (800 nM siRNA): ≥ 90%

From patent US9932584B2, “Interfering RNA delivery system and uses thereof” (Arrowhead Pharmaceuticals Inc., priority 2012, dated 2018)
